Assay results reported in ChEMBL document CHEMBL3880382, “TRH-like peptide derivatives as inhibitors of the TRH-degrading ectoenzyme” (2010).
Values belong to the molecule of their own block, whether it stands above or below them. Non-standard residues stand in square brackets, D forms with d. Residues, ends and D or L forms follow the SMILES beside them. hPhe = N[C@@H](CCc1ccccc1)C(=O)O; 2Thi = N[C@@H](Cc1cccs1)C(=O)O; pGlu = O=C1CC[C@@H](C(=O)O)N1; Phg = N[C@H](C(=O)O)c1ccccc1; Pip = O=C(O)[C@@H]1CCCCN1; Nva = CCC[C@H](N)C(=O)O

Legend:
[1] = target: T1, Thyrotropin releasing hormone degrading enzyme (Sus scrofa) (UniProt A0A287AP33); experiment: Substrate activity at pig brain TRH-DE assessed as rate of hydrolysis at 1 mM incubated for 18 hrs by HPLC analysis
[2] = target: T1, Thyrotropin releasing hormone degrading enzyme (Sus scrofa); experiment: Substrate activity at pig brain TRH-DE assessed as Vmax to Km ratio
[3] = target: T1, Thyrotropin releasing hormone degrading enzyme (Sus scrofa); experiment: Inhibition of pig brain TRH-DE at 1 mM using Glp-His-ProAMC as substrate by DPP-4-based continuous fluorometric method
[4] = substrate: Cc1cc(=O)oc2cc(NC(=O)[C@@H]3CCCN3C(=O)[C@H](Cc3cnc[nH]3)NC(=O)[C@@H]3CCC(=O)N3)ccc12; experiment: (§1) Substrate activity at pig brain TRH-DE assessed as Vmax after 18 hrs by HPLC analysis; settings: Sus scrofa
[5] = substrate: NC(=O)[C@@H]1CCCN1C(=O)[C@H](Cc1c[nH]cn1)NC(=O)[C@@H]1CCC(=O)N1; experiment: as §1; settings: Sus scrofa
[6] = substrate: NC(=O)[C@@H]1CCCN1C(=O)[C@H](Cc1ccc(O)cc1)NC(=O)[C@@H]1CCC(=O)N1; experiment: as §1; settings: Sus scrofa
[7] = substrate: NC(=O)[C@@H]1CCCN1C(=O)[C@H](Cc1ccccc1)NC(=O)[C@@H]1CCC(=O)N1; experiment: as §1; settings: Sus scrofa
[8] = substrate: NC(=O)[C@@H]1CCCN1C(=O)[C@H](Cc1cccs1)NC(=O)[C@@H]1CCC(=O)N1; experiment: as §1; settings: Sus scrofa
[9] = substrate: O=C1CC[C@@H](C(=O)N[C@@H](Cc2cnc[nH]2)C(=O)N2CCC[C@H]2C(=O)O)N1; experiment: as §1; settings: Sus scrofa
[10] = substrate: Cc1cc(=O)oc2cc(NC(=O)[C@@H]3CCCN3C(=O)[C@H](Cc3cnc[nH]3)NC(=O)[C@@H]3CCC(=O)N3)ccc12; experiment: (§2) Substrate activity at pig brain TRH-DE assessed as Km by discontinuous fluorometric method; settings: Sus scrofa
[11] = substrate: NC(=O)[C@@H]1CCCN1C(=O)[C@H](Cc1c[nH]cn1)NC(=O)[C@@H]1CCC(=O)N1; experiment: as §2; settings: Sus scrofa
[12] = substrate: NC(=O)[C@@H]1CCCN1C(=O)[C@H](Cc1ccc(O)cc1)NC(=O)[C@@H]1CCC(=O)N1; experiment: as §2; settings: Sus scrofa
[13] = substrate: NC(=O)[C@@H]1CCCN1C(=O)[C@H](Cc1ccccc1)NC(=O)[C@@H]1CCC(=O)N1; experiment: as §2; settings: Sus scrofa
[14] = substrate: NC(=O)[C@@H]1CCCN1C(=O)[C@H](Cc1cccs1)NC(=O)[C@@H]1CCC(=O)N1; experiment: as §2; settings: Sus scrofa
[15] = substrate: O=C1CC[C@@H](C(=O)N[C@@H](Cc2cnc[nH]2)C(=O)N2CCC[C@H]2C(=O)O)N1; experiment: as §2; settings: Sus scrofa

Molecule: CC(C)C[C@H](NC(=O)[C@@H]1CCC(=O)N1)C(=O)N1CCC[C@H]1C(N)=O ([pGlu]-Leu-Pro-NH2)
Activity [1]: 0.14 U/mg

Molecule: NC(=O)[C@@H]1CCCN1C(=O)[C@H](CO)NC(=O)[C@@H]1CCC(=O)N1 ([pGlu]-Ser-Pro-NH2)
Activity [1]: 0.05 U/mg

Molecule: C[C@@H](O)[C@H](NC(=O)[C@@H]1CCC(=O)N1)C(=O)N1CCC[C@H]1C(N)=O ([pGlu]-Thr-Pro-NH2)
Activity [1]: 0.14 U/mg

Molecule: CC(C)[C@H](NC(=O)[C@@H]1CCC(=O)N1)C(=O)N1CCC[C@H]1C(N)=O ([pGlu]-Val-Pro-NH2)
Activity [1]: 0.05 U/mg

Molecule: CCC[C@H](NC(=O)[C@@H]1CCC(=O)N1)C(=O)N1CCC[C@H]1C(N)=O ([pGlu]-[Nva]-Pro-NH2)
Activity [1]: 0.04 U/mg

Molecule: NC(=O)[C@@H]1CCCN1C(=O)[C@@H](NC(=O)[C@@H]1CCC(=O)N1)c1ccccc1 ([pGlu]-[Phg]-Pro-NH2)
inhibition [3]: 57%

B1: Thyrotropin releasing hormone degrading enzyme (Sus scrofa), A0A287AP33 (protein)
chain: MALDGERGEQEEEKKKKKKKKKRKKKKEEEGAKKSSSPFVATMGENDAALRAGGRGLSDPWADSVGVRPRTTERHITVHKRLVLAFAVSIVALLAVTMLAVLLSLRFDECGASIPPGADGGPAGFPARGGNESLPGSSRRDHHAGGDSSQPGAGREDTPETPSAQPPSEEEQEQWQPWTQLRLSGHLKPLHYNLMLTAFMENFTFSGEVNVEIACRNATRYVVLHASRVAVEKVQVAEDRVAGAVPVAGFFLYPQTQVLVVVLNRTLDAQRNYNLKIIYNALIENELLGFFRSSYVLHGERRFLGVTQFSPTHARKAFPCFDEPIYKATFKISIKHQATYLSLSNMPVETSVFEEDGWVTDHFSQTPLMSTYYLAWAICNFTYRETTTKSGVVVRLYARPDAIRRGSGDYALHITKRLIEFYEDYFKVPYSLPKLDLLAVPKHPYAAMENWGLSIFVEQRILLDPSVSSISYLLDVTMVIVHEICHQWFGDLVTPVWWEDVWLKEGFAHYFEFVGTDYLYPGWNMEKQRFLTDVLHEVMLLDGLASSHPVSQEVLRATDIDRVFDWIAYKKGAALIRMLANFMGHSVFQRGLQDYLTIHKYGNAARNDLWNTLSEALKRNGKYVNIQEVMDQWTLQMGYPVITIFGNTTAENRIIITQQHFIYDISAKAKPHELQNSSYLWQIPLTIVVGNRSHVSSEAIIWVSNKTEHHRITSLNKGSWLLGNINQTGYFRVNYDLRNWRLLIDQLIRNHEVLSVSNRAGLIDDAFSLARAGYLPQNIPLEIIRYLSEEKDFLPWHAASRALYPLDKLLDRMEKYNVFNEYILKQVATTYIKLGWPKNNFNGSLVQASYQHEELRREVIMLACSFGNKHCHQQASTLISDWISSNRNRIPLNVRDIVYCTGVSLLDEDVWEFIWMKFHSTTAISEKKILLEALTCSDDRNLLNRLLNLSLNSEVVLDQDAIDVIIHVARNPHGRDLAWKFFRDKWKILNTRYGEALFMNSKLISGVTEFLNTEGELKELKNFMKSYDGVAAASFSRAVETVEANVRWKMLYQDELFQWLGKALRH
Vmax [4]: 0.11 U/mg | Vmax [5]: 2.63 U/mg | Vmax [6]: 0.67 U/mg | Vmax [7]: 1.64 U/mg | Vmax [8]: 2.19 U/mg | Vmax [9]: 4.43 U/mg | Km [10]: 3.1 µM | Km [11]: 35 µM | Km [12]: 15 µM | Km [13]: 55 µM | Km [14]: 34 µM | Km [15]: 311 µM

Second part, the molecule after the results:

Activity [1]: 0.46 U/mg
Molecule: NCCCC[C@H](NC(=O)[C@@H]1CCC(=O)N1)C(=O)N1CCC[C@H]1C(N)=O ([pGlu]-Lys-Pro-NH2)

Activity [1]: 0.21 U/mg
Molecule: CSCC[C@H](NC(=O)[C@@H]1CCC(=O)N1)C(=O)N1CCC[C@H]1C(N)=O ([pGlu]-Met-Pro-NH2)

Activity [1]: 1.56 U/mg | Vmax/Km [2]: 0.03 U/mg/µM
Molecule: NC(=O)[C@@H]1CCCN1C(=O)[C@H](Cc1ccccc1)NC(=O)[C@@H]1CCC(=O)N1 ([pGlu]-Phe-Pro-NH2)

inhibition [3]: 3%
Molecule: NC(=O)[C@@H]1CCCN1C(=O)[C@@H]1CCCN1C(=O)[C@@H]1CCC(=O)N1 ([pGlu]-Pro-Pro-NH2)

inhibition [3]: 71%
Molecule: NC(=O)[C@@H]1CCCN1C(=O)[C@H](Cc1c[nH]c2ccccc12)NC(=O)[C@@H]1CCC(=O)N1 ([pGlu]-Trp-Pro-NH2)

Activity [1]: 0.66 U/mg | Vmax/Km [2]: 0.05 U/mg/µM
Molecule: NC(=O)[C@@H]1CCCN1C(=O)[C@H](Cc1ccc(O)cc1)NC(=O)[C@@H]1CCC(=O)N1 ([pGlu]-Tyr-Pro-NH2)

Activity [1]: 2.12 U/mg | Vmax/Km [2]: 0.06 U/mg/µM
Molecule: NC(=O)[C@@H]1CCCN1C(=O)[C@H](Cc1cccs1)NC(=O)[C@@H]1CCC(=O)N1 ([pGlu]-[2Thi]-Pro-NH2)

inhibition [3]: 40%
Molecule: NC(=O)[C@@H]1CCCN1C(=O)[C@@H]1CCCCN1C(=O)[C@@H]1CCC(=O)N1 ([pGlu]-[Pip]-Pro-NH2)

inhibition [3]: 2%
Molecule: NC(=O)C[C@@H](NC(=O)[C@@H]1CCC(=O)N1)C(=O)N1CCC[C@H]1C(N)=O ([pGlu]-[dN]-Pro-NH2)

Activity [1]: 0.05 U/mg
Molecule: NC(=O)[C@@H]1CCCN1C(=O)[C@H](CCc1ccccc1)NC(=O)[C@@H]1CCC(=O)N1 ([pGlu]-[hPhe]-Pro-NH2)
